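How tested: cells in 96-well plates exposed to compound for 48 hours at five concentrations. Here, GI50 denotes the concentration required for 50% inhibition of growth. TGI is the concentration that stops growth completely.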
Columns and labels:
Assay in all cases: DTP human tumour cell line panel, 48 h
[1] = tested on: NCI-H460 lung
[2] = tested on: SN12C renal
[3] = tested on: SK-MEL-2 melanoma
[4] = tested on: M14 melanoma
[5] = tested on: SNB-19 CNS
[6] = tested on: MDA-MB-231 breast
[7] = tested on: HL-60(TB) leukemia
[8] = tested on: HT29 colon
[9] = tested on: OVCAR-5 ovarian
[10] = tested on: SR leukemia

SMILES | GI50 [1] [µM] | TGI [1] [µM] | GI50 [2] [µM] | TGI [2] [µM] | GI50 [3] [µM] | TGI [3] [µM] | GI50 [4] [µM] | TGI [4] [µM] | GI50 [5] [µM] | TGI [5] [µM] | GI50 [6] [µM] | TGI [6] [µM] | GI50 [7] [µM] | TGI [7] [µM] | GI50 [8] [µM] | TGI [8] [µM] | GI50 [9] [µM] | TGI [9] [µM] | TGI [10] [µM]
CC1=C(C(=O)Nc2ccc(F)c(Cl)c2)C(c2cccc(O)c2)NC(=O)N1 (configuration not stated) | > 100 | > 100 | > 100 | > 100 | 29.5 | > 100 | 71.4 | > 100 | > 100 | > 100 | 46.2 | > 100 | 6.81 | > 100 | 81.6 | > 100 | > 100 | > 100 | –
COc1ccc2nc(NC(=O)C(=O)C(C#N)c3ccc([N+](=O)[O-])cc3)sc2c1 (configuration not stated) | – | > 100 | – | > 100 | – | > 100 | – | > 100 | – | > 100 | – | – | – | – | – | > 100 | – | > 100 | –
O=C1OC2CCCC[C@@H]2C2C[C@]34CCCCC3[C@@H](C(=O)O4)C12 (some centres not stated) | – | > 100 | – | > 100 | – | > 100 | – | > 100 | – | > 100 | – | – | – | – | – | > 100 | – | > 100 | –
COc1c(CCl)cc(-c2cc(=O)c3ccccc3s2)cc1CCl | – | > 100 | – | > 100 | – | > 100 | – | > 100 | – | > 88.9 | – | – | – | > 23.6 | – | – | – | > 100 | > 100
CCN(CC)c1ccc(N=Nc2ccc(-c3nc4ccc[n+](C)c4s3)cc2)cc1 | – | 21.5 | – | 16.2 | – | 25.5 | – | 37.6 | – | 25.1 | – | – | – | – | – | 18.5 | – | 31.1 | 53.7
CC(C)(C)c1cc(C(O)(C(F)(F)F)C(F)(F)F)c2c(c1)C(C(F)(F)F)(C(F)(F)F)OC(C(C)(C)C)N2 (configuration not stated) | – | 9.01 | – | 14.6 | – | 10.3 | – | 18.2 | – | 19.3 | – | – | – | – | – | 9.37 | – | 23.3 | 7.2
CCOC(=O)NC(=O)c1cn(CCCOC(=O)CCCCCCCCCCC(=O)OCCCn2cc(C(=O)NC(=O)OCC)c(=O)[nH]c2=O)c(=O)[nH]c1=O | – | > 100 | – | > 100 | – | > 100 | – | > 100 | – | > 100 | – | – | – | > 100 | – | > 100 | – | > 100 | > 100
O=C1/C(=C/c2cccc([N+](=O)[O-])c2)COc2ccc(Br)cc21 | – | > 100 | – | – | – | > 100 | – | – | – | – | – | – | – | 58 | – | > 100 | – | > 100 | –
COc1cc(/C=C(\C#N)c2ccccc2)cc(OC)c1 | – | > 100 | – | > 100 | – | > 100 | – | > 100 | – | > 100 | – | – | – | > 100 | – | > 100 | – | > 100 | > 100
Clc1ccc2c(c1)-c1c3c(nn1-c1ccccc1)-c1ccccc1SC3O2 (configuration not stated) | – | > 100 | – | – | – | > 100 | – | – | – | – | – | – | – | > 100 | – | > 100 | – | > 100 | –
C=CC/C=C/C/C=C/CCCCCCCc1cccc(O)c1C(=O)O | – | > 100 | – | – | – | > 100 | – | > 100 | – | > 100 | – | – | – | > 100 | – | > 100 | – | > 100 | > 100
CN(C)c1cc[c]([Sn]([c]2ccc(N(C)C)cc2)([c]2ccc(N(C)C)cc2)[c]2ccc(N(C)C)cc2)cc1 | 12 | 28.1 | > 100 | > 100 | 6.83 | 29.3 | 9.18 | 21.6 | 10.7 | 23 | – | – | 1.89 | 6.93 | 2.91 | 12.7 | 16.2 | 33.2 | –
N#CC1CC2(C1)OCCS2 (configuration not stated) | – | > 100 | – | > 100 | – | > 100 | – | > 100 | – | > 100 | – | – | – | > 100 | – | > 100 | – | > 100 | > 100
O=C1[C@@H]2C(c3ccccc3F)=NO[C@@H]2C(=O)N1c1ccc(Cc2ccc(N3C(=O)[C@H]4C(c5ccccc5F)=NO[C@H]4C3=O)cc2)cc1 | – | > 100 | – | > 100 | – | > 100 | – | > 100 | – | > 100 | – | – | – | 34.7 | – | > 100 | – | > 100 | > 100
NC(=O)NCc1c(C(N)=O)ncn1Cc1ccccc1 | – | > 100 | – | > 100 | – | – | – | > 100 | – | > 100 | – | – | – | > 100 | – | > 100 | – | – | –
Cc1c(C(=O)/C=C/c2ccccc2)[n+](=O)c2ccccc2n1[O-] | – | 35.6 | – | 33.6 | – | – | – | 29.1 | – | 31.8 | – | – | – | 40.7 | – | 35.7 | – | 30.7 | 66
O=C(c1ccccc1)C1OC12C(=O)Nc1ccccc12 (configuration not stated) | – | > 100 | – | > 100 | – | > 100 | – | 63 | – | > 100 | – | – | – | 9.73 | – | 37.9 | – | > 100 | –
O=C(Nc1c(Cl)cc([N+](=O)[O-])cc1Cl)C(=O)C(C1OC(=O)c2ccccc21)[N+](=O)[O-] (configuration not stated) | – | > 100 | – | > 100 | – | > 100 | – | > 100 | – | > 100 | – | – | – | > 100 | – | > 100 | – | > 100 | > 100

From PubChem BioAssay (NCI)
